Experimental data: article PMC11249646, “Small-Molecule Disruptors of the Interaction between Calcium- and Integrin-Binding Protein 1 and Integrin αIIbβ3 as Novel Antiplatelet Agents” (ACS Pharmacology & Translational Science, 2024)
pIC50: −log10 of the molar value. Like-named read-outs stand apart in the source and are kept apart here.

Tests used:
[1] = biological target: T1, GST-CIB1 : F-scrambled peptide (Homo sapiens, UniProt Q99828); test: FP scrambled-peptide counter screen, 1536-well format; assay type: binding; settings: for Curve Class (counterscreen): qHTS curve class; for IC50: read-out: IC50 [μM] (counterscreen); for Confirm? (counterscreen): YES/NO
T1 construct: made in house; host or cells: BL-21 plus RIL cells (E. coli)
T1 sequence (Q99828 1-191): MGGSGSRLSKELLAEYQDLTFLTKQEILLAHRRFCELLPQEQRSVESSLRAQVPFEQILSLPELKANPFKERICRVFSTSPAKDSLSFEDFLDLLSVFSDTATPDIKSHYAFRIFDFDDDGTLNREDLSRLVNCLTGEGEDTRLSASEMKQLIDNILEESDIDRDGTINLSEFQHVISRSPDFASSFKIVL

[2] = biological target: T2, CIB1 and αIIb interaction (CIB1-GST : F-αIIb peptide) (Homo sapiens, UniProt Q99828); test: FP assay, 1536-well qHTS format (primary and confirmatory screen); assay type: binding; settings: for Curve Class (confirmatory screen): qHTS curve class; for Efficacy (%) / Curve Class / pIC50: Table S2; for pIC50: read-out: IC50; for IC50: read-out: IC50 [μM] (confirmatory screen)
T2 construct: made in house; host or cells: BL-21 plus RIL cells (E. coli)
T2 sequence (Q99828 1-191): T1 sequence (Q99828 1-191)

[3] = Table S3, counterscreen, a negative sign marks inhibitory curves
[4] = Table S3, counterscreen, negative = inhibition
[5] = Table S3, confirmatory screen, YES/NO call
[6] = Table S3, confirmatory screen, a negative sign marks inhibitory curves
[7] = Table S3, confirmatory screen, negative = inhibition
[8] = qHTS primary screen hits, negative = inhibition
[9] = qHTS primary screen hits, negative sign = inhibitory curve, several classes where COUNT > 1
[10] = counterscreen, negative sign = inhibitory curve
[11] = confirmatory screen, negative sign = inhibitory curve
[12] = qHTS FP screen hits, negative = inhibition
[13] = qHTS FP screen hits, one class per curve where COUNT > 1, negative sign = inhibitory curve
[14] = qHTS primary screen hits, negative sign = inhibitory curve

Row | Structure (SMILES) | Curve Class (counterscreen) [1, 3] | Efficacy (%) (counterscreen) [1, 4] | IC50 ([1]; Table S3, counterscreen) [µM] | Confirm? (confirmatory screen) [2, 5] | Curve Class (confirmatory screen) [2, 6] | Efficacy (%) (confirmatory screen) [2, 7] | Efficacy (%) [2, 8] [%] | Curve Class [2, 9] | pIC50 ([2]; qHTS primary screen hits) | Efficacy (%) (counterscreen) ([1]; counterscreen) | Curve Class (counterscreen) [1, 10] | IC50 ([1]; counterscreen) [µM] | Efficacy (%) (confirmatory screen) ([2]; confirmatory screen) | Confirm? (confirmatory screen) ([2]; confirmatory screen, YES/NO) | Curve Class (confirmatory screen) [2, 11] | IC50 ([2]; confirmatory screen) [µM] | also measured
1 | O=C(O)C(F)(F)F.O=S(=O)(Nc1nccs1)c1ccc(Nc2nc(-c3ccccc3)cs2)cc1 [NCGC00262380-01] | -2.1 | -81 | 50.1 | YES | -2.2 | -80 | -69 | -2.2 | 4.30 | – | – | – | – | – | – | – | –
2 | N#Cc1ccc(NS(=O)(=O)c2ccc(Nc3nc(-c4ccccc4)cs3)cc2)cc1.O=C(O)C(F)(F)F [NCGC00262382-01] | – | – | – | – | – | – | – | – | – | -84 | -2.2 | 44.7 | -103 | YES | -2.1 | 44.7 | Efficacy (%) [2, 12]: -59%; Curve Class [2, 13]: -2.2; pIC50 ([2]; qHTS FP screen hits): 4.15
3 | O=C(O)C(F)(F)F.O=S(=O)(NCc1nccs1)c1ccc(Nc2nc(-c3ccccc3)cs2)cc1 [NCGC00262383-01] | -2.2 | -83 | 50.1 | YES | -2.2 | -80 | – | – | – | – | – | – | – | – | – | – | Efficacy (%) [2, 12]: -60%; Curve Class [2, 13]: -2.2; pIC50 ([2]; qHTS FP screen hits): 4.30
4 | NS(=O)(=O)c1ccc(Nc2nc(-c3ccccc3)cs2)cc1.O=C(O)C(F)(F)F [NCGC00262411-01] | -2.1 | -98 | 44.7 | YES | -2.2 | -84 | -58 | -2.2 | 4.30 | – | – | – | – | – | – | – | –
5 | CNc1oc(-c2c[nH]c3ccccc23)nc1C#N.O=C(O)C(F)(F)F [NCGC00262511-01] | -2.4 | -53 | 28.2 | YES | -3 | -55 | -19 | – | 4.80 | – | – | – | – | – | – | – | IC50 ([2]; Table S3, confirmatory screen): 35.5 µM; Curve Class [2, 14]: -1.4
6 | Cl.Nc1cc(C(F)(F)F)ccc1S [NCGC00262926-01] | – | – | – | – | – | – | -84 | -1.1 | 4.55 | -35 | -1.4 | 12.6 | -117 | YES | -1.1 | 22.4 | Confirm? (counterscreen) ([1]; counterscreen): YES
7 | Cc1ccc(S(=O)(=O)Nc2ccc(Br)cc2C(=O)Nc2nc(-c3ccccc3)cs2)cc1.O=C(O)C(F)(F)F [NCGC00262989-01] | – | 243 | 35.5 | – | 2.4 | 47 | -26 | -2.4 | 4.70 | – | – | – | – | – | – | – | –
8 | Cn1cc(-c2[nH]c3cc(NC(=O)[C@H](N)C4CCCCC4)cc4c3c2C=NNC4=O)cn1 [NCGC00263132-02] | -2.1 | -107 | 79.4 | YES | -2.2 | -85 | -24 | -1.4 | 5.38 | – | – | – | – | – | – | – | IC50 ([2]; Table S3, confirmatory screen): 50.1 µM
9 | CC(C)c1ccccc1Cc1cc(C(=O)Nc2ccc(S(=O)(=O)c3ccccc3C(C)(C)C)cc2)c(O)c(O)c1O [NCGC00263208-01] | – | – | – | – | – | – | -27 | – | 4.82 | -40 | -1.2 | 15.8 | -56 | YES | -1.2 | 14.1 | Curve Class [2, 14]: -2.4
10 | Cc1ccc(S(=O)(=O)Nc2cc3c(cc2C(=O)Nc2nc(-c4ccccc4)cs2)OCO3)cc1.O=C(O)C(F)(F)F [NCGC00263702-01] | – | 111 | 44.7 | – | 4 | -44 | -40 | – | 4.40 | – | – | – | – | – | – | – | Curve Class [2, 14]: -2.2
11 | COc1ccc(-n2ncc3c2CCCC3NC(=O)c2ccccc2Cl)cc1.O=C(O)C(F)(F)F (centres unmarked) [NCGC00273443-01] | 4 | 0 | – | – | 4 | -11 | -29 | -2.4 | 4.60 | – | – | – | – | – | – | – | –
12 | COc1ccc(-n2ncc3c2CCCC3NC(=O)c2ccccc2F)cc1.O=C(O)C(F)(F)F (centres unmarked) [NCGC00273507-01] | 4 | 13 | – | – | 2.4 | 22 | -45 | -2.2 | 4.40 | – | – | – | – | – | – | – | –
13 | Cl.O=[N+]([O-])c1ccc(CNc2ccc(S(=O)(=O)Nc3nccs3)cc2)c(O)c1 [NCGC00273519-01] | – | – | – | – | – | – | -24 | -1.4 | 5.10 | -48 | -2.2 | 25.1 | -67 | YES | -2.4 | 12.6 | –
14 | Cl.O=[N+]([O-])c1cccc(CNc2ccc(S(=O)(=O)Nc3nccs3)cc2)c1O [NCGC00273554-01] | – | – | – | – | – | – | -27 | -1.4 | 5.15 | -43 | -2.2 | 50.1 | -49 | YES | -2.4 | 22.4 | –
15 | Cl.O=S(=O)(Nc1nccs1)c1ccc(NCc2cc(Cl)ccc2O)cc1 [NCGC00273561-01] | – | – | – | – | – | – | -27 | -1.4 | 4.70 | -36 | 4 | – | -48 | YES | -2.4 | 50.1 | Confirm? (counterscreen) ([1]; counterscreen): YES
16 | Nc1ccc(CNc2ccc(S(=O)(=O)Nc3nccs3)cc2)c(O)c1.O=C(O)C(F)(F)F [NCGC00273962-01] | – | – | – | – | – | – | -29 | – | 4.40 | -61 | -2.2 | 50.1 | -75 | YES | -3 | 89.1 | Curve Class [2, 14]: -2.4
